Results reported in patent publication US20220304307A1, “SYNERGISTIC MIXTURES FOR ARTHROPOD TOXICITY AND REPELLENCY” (University of Florida Research Foundation, Incorporated, priority 2019, published 2022).
Where two headings read alike, the source gives them in different places.

Columns and labels:
[1] = tested on: pyrethroid-resistant Puerto Rico (PR) strain of Ae. aegypti; assay: Glass tube spatial repellency assay, resistant strain; assay type: in vivo, Aedes aegypti; set-up: 1 h EC50-PR (repellency): unit not given here; conditions: compound alone; for 1 h EC50-PR (repellency): PR strain; for RR (PR EC50/OR EC50): repellency resistance ratio
Description: (§1) The following assay was conducted according to the procedures of Jiang et al., 2019 (Jiang S., Yang L, and Bloomquist J (2019) High-throughput screening method for evaluating spatial repellency and vapor toxicity to mosquitoes. Med. Vet. Entomol.). For assessing behavioral repellency (FIG. 1), sixteen female Aedes aegypti mosquitoes were transferred to a glass tube (12.5 cm long, 2.5 cm outer diameter) with the ends covered with netting. Metofluthrin, bifenthrin, permethrin, pyrethrum, transfluthrin, deltamethrin, esfenvalerate, metofluthrin acid, bifenthrin acid, phenothrin acid, transchryanthemic acid, transfluthrin acid, deltamethrin acid, and fenvalerate acid were each dissolved in 1 mL of acetone and serial dilutions ranging from 30-0.01 μg/ml were made. Circular filter papers (5 cm^2) were saturated with 50 μL of each concentration and allowed 10 min for solvent evaporation. The filter papers were then placed in clear conical polypropylene caps and fixed to the end of the glass tubes. The netting prevented mosquito contact with the filter paper. Tubes were then aligned with a mark denoting the midline and the proportion of mosquitoes on the chemically treated side was scored at 15, 30, and 60 min. At the end of the test, the tube was placed in a cage and the ability of the mosquitoes to fly out of the tube was assessed for 30 min. […] This post-test evaluated whether any non-responding mosquitoes (not repelled) was due to intoxication or disorientation from the test chemical. For vapor toxicity, the assay was identical, except that mosquitoes were kept in the tube for 24 hr without the post-test at 1 hr, and the mortality was recorded at 24 hr.
EC50 values were calculated from non-linear regression to a four parameter logistic equation (Prism, GraphPad Software, San Diego, Calif.) of the curves shown in FIG. 4. RR=resistance ratio. NA=data not yet available.

[2] = tested on: Orlando insecticide-susceptible strain of Ae. aegypti (female mosquitoes); assay: Glass tube spatial repellency assay; assay type: in vivo, Aedes aegypti; set-up: 1 h EC50-OR (repellency): unit not given here; conditions: for 1 h EC50-OR (repellency) / repellency EC50: compound alone; for 1 h EC50-OR (repellency): OR strain; for repellency EC50 (+TFA): applied as mixture with TFA (50 μg/cm^2); for 1 h EC50-OR (repellency) / repellency EC50 (+TFA) / repellency EC50: 1 hr; for synergist ratio SR (EC50 compound alone/EC50 compound+TFA): repellency, TFA 50 μg/cm^2 as mixture; for 15 min repellency ratio / 30 min repellency ratio / 1 hr repellency ratio: horizontal tube, 0.5=0% repellency, 0=100% repellency; for mortality in repellency screening: 100 μg/cm^2, 1 hr exposure
Description: as §1

female Ae. aegypti = assay: Human arm bite protection assay; assay type: in vivo, Aedes aegypti
Description: A human bite protection assay was performed according to see if the repellency observed in glass tubes extended to bite protection. The assay was run in accordance with that of Tsikolia et al. (Tsikolia M, Bernier UR, Coy M, Chalaire K, Becnel J, Agramonte N, Tabanca N, Wedge D, Clark G, Linthicum K, Swale D, and J. R. Bloomquist J (2013) Insecticidal and fungicidal properties of novel trifluoromethylphenyl amides. Pestic. Biochem. Physiol. 107, 138-147). Treated cloth patches were worn by human volunteers and the number of blood fed mosquitoes was determined after 1 min spent in a cage with 500 (±10%) female Ae. aegypti. Minimum Effective Dosage (MED in mg/cm^2) is the minimum amount required to prevent 99% of bites in three human volunteers (UF IRB #201602334). Synergist ratio (SR)=MED chemical alone/MED chemical+TFA (0.047 mg/cm^2) or TCA (0.094 mg/cm^2).

[3] = tested on: insecticide-susceptible Aedes aegypti (Orlando strain) females; assay: Glass tube vapor toxicity assay (24 hr mortality); conditions: for 24 hr mort (%): horizontal tube; for LC50 (24 h vapor toxicity): pyrethroid alone; for mortality at 100 µg/cm2: Aedes aegypti
Description: as §1
Synergism ratio (SR)=LC50 pyrethroid/LC50 pyrethroid+EO.

[4] = tested on: OR (susceptible) strain of Ae. aegypti antenna; assay: Electroantennography (EAG) responses, OR strain; set-up: species or system Aedes aegypti; conditions: 10 mg odorant, air puff
Source text: (§2) Electroantennography (EAG) responses of OR (susceptible) and PR (resistant) strains of Ae. Aegypti were then obtained for TF, TFA, and TCA (FIGS. 10A and 10B). In these experiments, an air puff stimulus with odorant was blown over an antenna suspended between 2 electrodes and represented the summed electrical response of all the chemo-receptive hairs. All compounds gave responses, with TF the largest (FIG. 10A).

[5] = tested on: PR (resistant) strain of Ae. aegypti antenna; assay: Electroantennography (EAG) responses, PR strain; set-up: species or system Aedes aegypti; conditions: 10 mg odorant, air puff
Source text: as §2

[6] = tested on: pyrethroid-resistant Puerto Rico strain of Ae. aegypti; assay: Glass tube vapor toxicity assay, resistant strain; assay type: in vivo, Aedes aegypti; conditions: for resistance ratio RR, vapor toxicity: pyrethroid alone, Puerto Rico vs Orlando
Source text: The netting prevented mosquito contact with the filter paper.
The vapor toxicity of metofluthrin alone and in combination with citronella oil (CO) on susceptible Orlando and pyrethroid-resistant Puerto Rico strains of Ae. aegypti was investigated. The results are provided in Table 10 and in FIGS. 26 and 27. […] Synergism ratio (SR)=LC50 metofluthrin/LC50 metofluthrin+citronella. […] Resistance ratio (RR)=LC50 metofluthrin[…] on Puerto Rico/LC50 metofluthrin on Orlando.
Next, the vapor toxicity of empenthrin applied to two strains of Aedes aegypti, the pyrethroid-susceptible Orlando and pyrethroid-resistant Puerto Rico strain, was investigated. Empenthrin was applied alone and in combination with citronella oil (100 μg/cm^2, a nontoxic exposure). The RR for empenthrin alone was 5.7-fold.

Row | Molecule | RR (PR EC50/OR EC50) [1] | 24 hr mort (%) ([3]; 10 μg/cm^2) | 24 hr mort (%) ([3]; 100 μg/cm^2) | 15 min repellency ratio ([2]; 10 μg/cm^2) | 30 min repellency ratio ([2]; 10 μg/cm^2) | 1 hr repellency ratio ([2]; 10 μg/cm^2) | 15 min repellency ratio ([2]; 100 μg/cm^2) | 30 min repellency ratio ([2]; 100 μg/cm^2) | 1 hr repellency ratio ([2]; 100 μg/cm^2) | other results
1 | CC1(C)C(C=C(Cl)C(F)(F)F)C1C(=O)O (stereo not drawn) [BFA, bifenthrin acid] | 0.8 | – | – | – | – | – | – | – | – | 1 h EC50-PR (repellency) [1]: 11; 1 h EC50-OR (repellency) [2]: 14
2 | CC(C)[C@H](C(=O)O)c1ccc(Cl)cc1 [FVA, fenvalerate acid] | 1.7 | – | – | – | – | – | – | – | – | –
3 | CC(C)=C[C@@H]1[C@@H](C(=O)O)C1(C)C (relative stereo) [TCA, 1-R-trans-chrysanthemic acid] | 1.9 | – | – | – | – | – | – | – | – | MED values Female 10 (female Ae. aegypti; as E30, volunteer one): 0.375 mg/cm^2; MED values Female 9 (female Ae. aegypti; as E30, volunteer two): 0.187 mg/cm^2; MED Mean (female Ae. aegypti; mean of three human volunteers): 0.312 mg/cm^2; MED values Male 4 (female Ae. aegypti; minimum amount preventing 99% of bites, treated cloth patch, 1 min in cage, mixtures with TFA 0.047 or TCA 0.094 mg/cm^2): 0.375 mg/cm^2; repellency ([2]; TCA alone at 10 μg/cm^2): 25%; repellency EC50 (+TFA) [2]: 1.3 μg/cm^2; repellency EC50 [2]: 20 μg/cm^2; synergist ratio SR (EC50 compound alone/EC50 compound+TFA) [2]: 15
4 | C=Cc1cccc(C=O)c1 [3-vinylbenzaldehyde] | – | 100.0% | 6.3% | 0.50 | 0.50 | 0.31 | 0.19 | 0.25 | 0.19 | –
5 | O=Cc1cccc(C(=O)O)c1 [3-formyl benzoic acid] | – | 6.3% | 9.4% | 0.50 | 0.47 | 0.47 | 0.53 | 0.56 | 0.56 | –
6 | α, α, α-trifluoromethyltolualdehyde | – | 0.0% | 0.0% | 0.38 | 0.44 | 0.31 | 0.38 | 0.50 | 0.63 | –
7 | trifluoromethoxybenzaldehyde | – | 6.3% | 0.0% | 0.38 | 0.38 | 0.44 | 0.31 | 0.31 | 0.50 | –
8 | CC1(C)[C@H](C=C(Cl)Cl)[C@H]1C(=O)OCc1c(F)c(F)cc(F)c1F [Transfluthrin, reference compound] | 4.7 | – | – | – | – | – | – | – | – | synergism ratio of vapor toxicity, +TFA ([3]; TFA 50 μg/cm^2): 2.3; LC50 (24 h vapor toxicity) [3]: 0.16 μg/cm^2; LC50 +TFA ([3]; with TFA (50 μg/cm^2), 24 h): 0.07 μg/cm^2; EAG response [4]: largest; EAG response in PR strain relative to OR [5]: reduced; mortality in repellency screening [2]: significant mortality; repellency EC50 (+TFA) [2]: 0.11 μg/cm^2; synergism of repellency with citronella ([2]; citronella at its EC20 (20 μg/cm^2)): not; repellency EC50 [2]: 0.5 μg/cm^2; synergist ratio SR (EC50 compound alone/EC50 compound+TFA) [2]: about 5
9 | O=Cc1cccc(C=O)c1 [isophthalaldehdye] | – | 40.6% | 87.5% | 0.41 | 0.41 | 0.41 | 0.03 | 0.09 | 0.06 | –
10 | C/C=C/C1C(C(=O)OCc2c(F)c(F)c(COC)c(F)c2F)C1(C)C (stereo not drawn) [Metofluthrin, reference compound] | 60 | – | – | – | – | – | – | – | – | synergism ratio of vapor toxicity, +citronella ([3]; in vivo): 7.6; LC50 (24 h vapor toxicity) [3]: 0.84 μg/cm^2; LC50 +citronella ([3]; with citronella, 24 h): 0.11 μg/cm^2; resistance ratio RR, vapor toxicity, +citronella oil ([6]; LC50 metofluthrin+CO on Puerto Rico/LC50 metofluthrin on Orlando): 7.3; resistance ratio RR, vapor toxicity [6]: 50.7; mortality in repellency screening [2]: significant mortality
11 | O=Cc1cccc(-c2ccccc2)c1 [biphenyl-3-carboxaldehyde] | – | 50.0% | 6.3% | 0.44 | 0.38 | 0.38 | 0.44 | 0.31 | 0.19 | –
12 | CC(C)=CC1C(C(=O)O)C1(C)C (stereo not drawn) [PhenA, phenothrin acid] | 0.8 | – | – | – | – | – | – | – | – | –
13 | C#CC(OC(=O)C1C(C=C(C)C)C1(C)C)/C(C)=C/CC (stereo not drawn) [empenthrin] | – | – | – | – | – | – | – | – | – | effect of citronella oil on resistance to vapor toxicity ([6]; citronella oil 100 μg/cm^2, Puerto Rico strain): reversed resistance; resistance ratio RR, vapor toxicity [6]: 5.7
14 | CC=CC1C(C(=O)O)C1(C)C (stereo not drawn) [MFA, metofluthrin acid] | 1.3 | – | – | – | – | – | – | – | – | 1 h EC50-PR (repellency) [1]: 18; 1 h EC50-OR (repellency) [2]: 14
15 | O=Cc1cccc(Cl)c1 [3-chlorobenzaldehyde] | – | 31.3% | 100.0% | 0.28 | 0.34 | 0.41 | – | – | – | mortality at 100 µg/cm2 ([3]; 0.25 h, read-out: 15 min % mortality): 50%; mortality at 100 µg/cm2 ([3]; 0.5 h, read-out: 30 min % mortality): 75%; mortality at 100 µg/cm2 ([3]; 1 h, read-out: 1 hr % mortality): 100%
